Laboratory results from PMC10319141, “Imidazoquinolines with improved pharmacokinetic properties induce a high IFNα to TNFα ratio in vitro and in vivo” (Frontiers in Immunology, 2023).
Where two headings read alike, the source gives them in different places.

Key:
[1] = Compound concentrations in organs after activity-adjusted s.c. doses (Figure 5B); type: in vivo, C57BL/6 mice; details: 3 µmol/kg s.c., 8 h post compound application; for concentration at 8 h: female, C57BL/6, mouse, sc
Protocol: All samples were extracted with 3 or 6 volumes acetonitrile containing terbuthylazine as an internal standard (ACN) relative to either sample weight or volume. Liquid samples (plasma, culture medium, cell suspensions in stability experiments) were diluted in either 3 (culture medium, cell suspensions) or 6 (plasma) volumes ACN, pellet and blood samples were extracted by addition of ACN followed by sonication for 5 min. Organ samples were digested with 0.5 µg/mg Proteinase K (Genaxxon) for 1 h at 50°C before being homogenized using a Fastprep FP-24 5G instrument (MP-Biomedicals). Homogenates were diluted with 6 volumes ACN and homogenized again. All extracts were cleared by centrifugation at ~20.000xg for 10 min at 4°C.
Quantification of analytes was performed on an Agilent 1260/1290 Infinity system fitted with an Agilent C18 Poroshell 120 column (4.6 x 50 mm, 2.7 µm) coupled to a triple quadrupole Sciex API 4000 MS/MS detector. The mobile phase was composed of water containing 0.1% formic acid (eluent A) and acetonitrile containing 0.1% formic acid (eluent B). Gradient used was: 5% B for 0.5 min, to 100% B in 4.5 min, 100% B for 2 min, to 5% B in 0.5 min, 5% for 2.5 min. MS detection parameters are listed in SI Table S1 .
(§1) Formulation. Test compounds were prepared for application in either 1% Tween 80, 9% PEG400 in ultrapure water (Biowest) (i.v., i.p., p.o. application) or 5 mM citric acid in 0.9% saline (Braun) (subcutaneous application). If compounds were administered subcutaneously, injections were carried out into the neck crease.
(§2) Collection of Samples. Mice were bled from the tail vein at various timepoints. Heparin (Sigma) or K2-EDTA (Sigma) was added to blood samples to a final […] concentration of 10-15 Unit or 5 mM. Plasma was generated by centrifugation at 6800xg for 8 min at 4°C and stored at -80°C until analyzed by ELISA or CBA. Animals were sacrificed after the indicated time points by CO2 inhalation. Heart blood and organs for compound quantification by HPLC-MS/MS were collected post mortem and stored at –20°C until extracted as described above.
(§3) Compound concentration in (A) peripheral blood collected via tail bleeding before, 15, 30 60, 120, 240, 360 and 480 min after s.c. compound application and (B) organs collected after 8 h was assessed via HPLC-MS/MS. (A, B) Data are presented as mean ± SD. (C) Levels of TNFα and IFNα as well as (D) IL6, CXCL1, CCL2, IFNβ, IFNγ and IL10 in tail plasma over time were determined via cytometric bead array. Area under the curve (AUC) of each cytokine was plotted against compound concentration.

[2] = test system: TNFα and IFNα in peripheral plasma; assay: Cytokine AUC in peripheral plasma after activity-adjusted s.c. doses (Figure 5C, Table 2 bottom); type: in vivo, C57BL/6 mice; details: for IFNα AUC / TNFα AUC: 8 h period; for IFNα AUC / TNFα AUC / INFα AUC / TNFα AUC: doses adjusted to activity (bottom section); for dose ratio, times the molar dose of RSQ leading to comparable amounts of IFNα / dose ratio, times the molar dose of RSQ necessary to induce similar levels of TNFα: comparison of AUC, s.c.
Protocol: Cytokine concentrations in samples were quantified either by ELISA (hTNFα, R&D Systems; hIFNα, Mabtech) or cytometric bead arrays (CBA, LegendPlex mouse anti-virus response panel, BioLegend) according to the manufacturer’s instructions. CBAs were acquired on a ZE5 Cell Analyzer (Bio-Rad) and analyzed using the LegendPlex Software Suite (Qognit/BioLegend). Absorbance of ELISA-samples was quantified using a Versamax microplate reader (Molecular Devices).
as §1, §2
as §3, with “concentration. Data are represented as mean ± 95% confidence interval.” for “concentration.”

[3] = kidney, read-out: concentration in kidney
[4] = liver, read-out: concentration in liver

SMILES | concentration at 8 h [1, 3] [nM] | concentration at 8 h [1, 4] [nM] | IFNα AUC ([2]; 1 µmol/kg s.c.) [pg·min/mL] | TNFα AUC ([2]; 1 µmol/kg s.c.) [pg·min/mL] | INFα AUC / TNFα AUC ([2]; 1 µmol/kg s.c.) | IFNα AUC ([2]; 3 µmol/kg s.c.) [pg·min/mL] | TNFα AUC ([2]; 3 µmol/kg s.c.) [pg·min/mL] | INFα AUC / TNFα AUC ([2]; 3 µmol/kg s.c.) | IFNα AUC ([2]; 6 µmol/kg s.c.) [pg·min/mL] | TNFα AUC ([2]; 6 µmol/kg s.c.) [pg·min/mL] | INFα AUC / TNFα AUC ([2]; 6 µmol/kg s.c.) | IFNα AUC ([2]; 12 µmol/kg s.c.) [pg·min/mL] | TNFα AUC ([2]; 12 µmol/kg s.c.) [pg·min/mL] | INFα AUC / TNFα AUC ([2]; 12 µmol/kg s.c.) | dose ratio, times the molar dose of RSQ leading to comparable amounts of IFNα [2] | dose ratio, times the molar dose of RSQ necessary to induce similar levels of TNFα [2] | further results
CCCCc1nc2c(N)nc3ccccc3c2n1CCC1CCN(C(=O)CN(C)CC(=O)N(C)C2CC(C)OC(OC3C(C)C(OC4CC(C)(OC)C(O)C(C)O4)C(C)C(=O)OC(CC)C(C)(O)C(O)C(C)N(C)CC(C)CC3(C)O)C2O)CC1 (centres unmarked) [A1-mac] | 2180 | 6030 | 33000 | 7200 | 5 | 300000 | 14000 | 22 | 1.6e+06 | 38000 | 42 | 1.9e+06 | 65000 | 30 | 6-10 times | 30-40 times | –
CCCCc1nc2c(N)nc3ccccc3c2n1CCC1CCNCC1 [A1] | 469 | 45 | 70000 | 9700 | 7 | 490000 | 11000 | 44 | 1.1e+06 | 20000 | 58 | 1.9e+06 | 44000 | 44 | 6-10 times | 30-40 times | –
CCOCc1nc2c(N)nc3ccccc3c2n1CC(C)(C)O [RSQ, Resiquimod, reference compound] | – | – | 1.1e+06 | 120000 | – | 970000 | 150000 | – | – | – | – | – | – | – | – | – | concentration in liver [1]: < LLOQ; IFNα AUC ([2]; 0.1 µmol/kg s.c.): 110000 pg·min/mL; TNFα AUC ([2]; 0.1 µmol/kg s.c.): 17000 pg·min/mL; IFNα AUC ([2]; 0.3 µmol/kg s.c.): 560000 pg·min/mL; TNFα AUC ([2]; 0.3 µmol/kg s.c.): 50000 pg·min/mL
